Measured values as given in ChEMBL document CHEMBL3045801, “Synthesis of 1, 2, 4-Triazolo[1, 5-a]-1, 3, 5-triazine Derivatives for Phytotoxic Activity” (J Pestic Sci, 1995).

Tests used:
Scenedesmus acutus [1] = test: Phytotoxicity against Scenedesmus acutus assessed as inhibition of chlorophyll content after 16 hr by spectrophotometry relative to untreated control; assay type: functional
Scenedesmus acutus [2] = test: Growth inhibition of Scenedesmus acutus assessed as packed cell volume per ml of algal culture volume after 16 hr (reference value: 3.8 ul pcv/ml); assay type: functional

| SMILES | inhibition (INH) (Scenedesmus acutus [1]) [%] | Activity (Scenedesmus acutus [2]) [uL/ml] |
| --- | --- | --- |
| O=C1C2=C(CCCC2)C(=O)N1c1ccc(Br)cc1F | 79 | 2.1 |
| CNc1ncnc2nc(-c3ccc(Cl)cc3)nn12 | 8.07 | 3.7 |
| Nc1ncnc2nc(-c3ccc(Cl)cc3F)nn12 | 32.61 | 3.1 |
| NC1=NC=NC2=NC(c3ccc(Cl)cc3F)NN12 (stereo not given) | 10.39 | 3.4 |
| Nc1ncnc2nc(-c3ccc(Cl)cc3)nn12 | 25.55 | 3.2 |
| NC1=NC=NC2=NC(c3ccc(Cl)cc3)NN12 (stereo not given) | 4.81 | 3.6 |
| CCN/C(=N\C=N\C#N)N/N=C(\C)c1ccccc1 | 27.93 | 3.6 |
| CN/C(=N\C=N\C#N)N/N=C/c1ccccc1 | 32.97 | 3.3 |
| CN/C(=N\C=N\C#N)N/N=C(\C)c1ccccc1 | 6.92 | 3.8 |
| C/C(=N\N/C(N)=N/C=N/C#N)c1ccc(Cl)cc1 | 37.18 | 3.4 |
| COc1ccc(/C=N/N/C(N)=N/C=N/C#N)cc1 | 28.77 | 3 |
| N#C/N=C/N=C(\N)N/N=C/c1ccc(Cl)cc1F | 41.65 | 3 |
| N#C/N=C/N=C(\N)N/N=C/c1ccc(Cl)cc1 | 29.21 | 3.1 |
| O=C1C2=C(CCCC2)C(=O)N1c1ccc(Cl)cc1 [CHLOROPHTHALIUM] | 2.34 | 2.5 |
| CCOc1cc(Oc2ccc(C(F)(F)F)cc2Cl)ccc1[N+](=O)[O-] [OXYFLUORFEN] | 2.24 | 1.4 |
